Laboratory results: patent US5707821A, “Identification of phospholipase A2 inhibitors in Aβ peptide-mediated neurodegenerative disease” (priority 1995, dated 1998)

Tests used:
Type in all cases: cell-based
[1] = test system: TNF-α release by cultured human cortical microglia; test: TNF-α release (ELISA) from Aβ1-40-stimulated human microglia
Procedure: (§1) Cultures of human cortical or hippocampal astrocytes and microglia were prepared using a modification of the procedure described for cortical neurons. Cortical tissue from fetuses of 16 to 20 weeks of gestation was washed 3 times in Ca^2+ /Mg^2+ free Hanks balanced salt solution (CMF HBSS) and then dissociated by repeated pipetting. The solution was brought to a final volume of 80 ml CMF HBSS for approximately 10 ml of tissue. DNase (Sigma) was added to a final concentration of 0.05 mg/ml. 20 ml of the solution was passed through one 100 μm nylon cell strained (Falcon). The cells were then centrifuged for 5 minutes at 200×G in an IEC Clinical Centrifuge and resuspended in a trypsin/EDTA solution (0.05% trypsin+0.53 mM EDTA in HBSS; Gibco) and incubated for 20 minutes at 37°C. (10 ml of trypsin was added per 2-3 ml of tissue). The trypsin was then inactivated by adding (MEM/FBS): Modified Eagle's Medium (MEM) containing 1% glucose, 1 mM sodium pyruvate, 1 mM glutamine, and supplemented with 10% fetal bovine serum (JRH). After adding a final concentration of 0.05 mg/ml DNase the cells were resuspended and then pelleted by centrifugation and resuspended in MEM/FBS. 1.6×10^8 cells were seeded in a T-150 tissue culture flask coated with polyethyleneimine (PEI). (10% PEI (Sigma) was diluted 1:10 in H2 O, filtered through a […] unit and then diluted into 150 mM sodium borate pH 8.5 at 1:100. The flasks were coated overnight at room temperature, washed two times in PBS and coated with 20 ml/flask of MEM/FBS at 37° C. for at least one hour prior to plating cells.) Cultures were maintained in a H2 O-saturated incubator with an atmosphere of 95% air/5% CO2 at 37° C. The culture medium was changed one and four days after plating and the cultures were then left undisturbed for at least one week. After approximately two weeks in vitro, the flasks were gently shaken and floating microglia were collected and centrifuged for 5 minutes at 200×G in an IEC Clinical Centrifuge. The microglia were reseeded in 96 well tissue culture plates at a density of 5,000-40,000 cells/well in 125 μl in MEM/FBS. Astrocyte cultures were prepared by multiple passaging of the established mixed brain cell cultures. Each T-150 was incubated for 3-4 minutes at 37°C. with a trypsin/EDTA solution (see above). The trypsin was then inactivated by adding MEM/FBS. The cells were triturated and then pelleted by centrifugation and resuspended in MEM/FBS. The cells from one T-150 were seeded at a 1:30 to 1:5 dilution in T-150's not coated. Just prior to confluency the cells were repassaged by trypsinization as described above. This process was repeated until the cultures were >98% pure astrocytes.
Cultured microglial cells were treated with 50 μM of Aβ1-40 or vehicle only (Control). The levels of IL-1β, IL-6, and TNF-α released into the culture medium were determined by ELISA assay (R&D Systems) according to manufacturer's instructions.
The effect of two benzenesulfonamide inhibitors of PLA2 (European Patent Application 468 054) were examined on the activation of microglial cells by Aβ1-40 as in Example 1.
(§2) The effects of the benzenesulfonamide PLA2 inhibitor AN20606 and the selective cytosolic PLA2 inhibitor arachidonyl trifluoromethyl ketone (AN20579) were examined in cultured human cortical microglia for their selectivity for inhibiting microglia activation mediated by amyloid-βpeptide and lipopolysaccharides (LPS). LPS are a major constituent of the cell wall of gama-negative bacteria and are extensively used for generating inflammatory responses in cultured cells and in vivo.

human cortical neurons [2] = test: Compound toxicity to human cortical neurons in absence of Aβ1-40 (alamarBlue, 3 days); conditions: human, 4320 min
Procedure: (§3) Cultures of human cortical or hippocampal neurons were prepared using a modification of the procedure described in P. Seubert et al. (1992), Nature 359:325-327. Cortical or hippocampal tissue was dissociated by incubation in a trypsin/EDTA solution (0.05% trypsin +0.53 mM EDTA in HBSS; Gibco) for 20 minutes at 37° C. The trypsin was then inactivated by resuspending the cells in serum-containing medium (MEM/FBS): Modified Eagle's Medium (MEM) containing 1% glucose, 1 mM sodium pyruvate, 1 mM glutamine, and supplemented with 10% fetal bovine serum (Gibco). Cells were then pelleted by centrifugation and resuspended in a chemically-defined medium (MEM/B27): MEM containing B27 supplement (Gibco) in place of FBS. Polyethyleneimine (PEI)-coated 6.4-mm (96-well) dishes were rinsed once with MEM/FBS, and then seeded at 0.75-1.25×10^5 cells per well in 0.1 ml MEM/B27. Cultures were maintained in a H2 O-saturated incubator with an atmosphere of 95% air/5% CO2 at 37° C. The culture medium was exchanged twice weekly.
(§4) The alamarBlue™ assay incorporated a proprietary fluorometric/colorimetric metabolic indicator (Alamar Biosciences, Inc.). Viable cells convert alamarBlue™ from an oxidized (non-fluorescent, blue) form to a reduced (fluorescent, red) form. Assays were performed by replacing the culture media with a 10% alamarBlue™ solution in DMEM (rat cortical cultures) or MEM (human cortical cultures). Reduction of alamarBlue™ was determined spectrofluorometrically using a Millipore Cytofluor 2350 Scanner (excitation, […]; emission, 590 nm) and CytoCalc™ software (Millipore Corporation).
(§5) Human cortical neurons were treated with 50 μM Aβ1-40 and various inhibitors of PLA2 or PLC. Compounds were added at the time of Aβ1-40 treatment at concentrations 390 nM to 100 μM. Compounds were also added to neuronal cultures in the absence of Aβ1-40. Neuronal survival was determined after 3 days of treatment by alamarBlue®. IC50 is the dose of compound that inhibited Aβ-mediated neurotoxicity by 50%. […] Data represents the mean ± SD (n=3). ND, not detected at the concentration range used.

[3] = test system: TNFα release by cultured human cortical microglia; test: TNF release from LPS-stimulated human cortical microglia
Procedure: as §1, §2

human cortical neurons [4] = test: Aβ neurotoxicity / survival of human cortical neurons (alamarBlue), compound added at time of Aβ1-40
Procedure: as §3
Amyloid-β (Aβ) stock solutions were prepared as 1 mM stocks in sterile ddH2 O immediately prior to addition to cultures. Rat cortical neurons were exposed to Aβ by removing the culture medium and replacing it with DMEM/N2 or DMEM/B27 containing Aβ1-40. Human cortical neurons were exposed to Aβ by removing the culture medium and replacing it with MEM, MEM/N2, or MEM/B27 containing Aβ1-40. Cultures were maintained for 2-4 days before neuronal survival was quantified using alamarBlue™.
as §4
The effect of the two benzenesulfonamide inhibitors of PLA2 in Example 2 were examined to determine the dose-dependence of their effect on neuronal survival in human cortical neuron cultures exposed to 0 μM, 25μM, or 50 μM of Aβ1-40 and varying doses of the benzenesulfonamide.
as §5

With CN(C(=O)/C=C/c1ccc(S(C)(=O)=O)cc1)c1ccc(S(=O)(=O)NC2CCCCCC2)cc1 [AN20606, N-cycloheptyl-4-[N-methyl-N-[(E)-3-(4-methylsulfonylphenyl)-2-propenoyl]amino]benzenesulfonamide] as the molecule, how does the “amount of TNF-α released into the medium (in words)” value ([1]; 50 μM Aβ1-40, 1 day, compound 0, 5, 10, 20 μM, FIG. 2) read?
Its value is “marked and dose-dependent decrease”.

And the “TNF Released” value ([1]; 50 μM Aβ1-40, inhibitor 20 μM where present)?
Its value is 3.7 ± 1.4 pg/mL.

And the “Aβ1-40-mediated TNFα release, selectivity versus LPS (in words)” value ([1]; Aβ1-40 versus LPS stimulation)?
The value was “selectively inhibited”.

And the activity at 20 µM ([1]; Homo sapiens, Microglia, 50 μM Aβ1-40 + 20 μM inhibitor, read-out: TNF Released, percent in parentheses (relative to Aβ1-40 alone))?
Its activity at 20 µM is 4%.

What about the “TD10 (concentration giving 10% loss of neuronal survival)” value (human cortical neurons [2]) of the same molecule?
Its value is 98 µM.

What about the “TNF Released” value ([3]; 10 ng/ml LPS, inhibitor 20 μM where present) of the same molecule?
The value was 632 ± 211 pg/mL.

What about the activity at 20 µM ([3]; Homo sapiens, Microglia, 10 ng/ml LPS + 20 μM inhibitor, read-out: TNF Released, percent in parentheses (relative to LPS alone)) of the same molecule?
The activity at 20 µM was 130%.

And the “LPS-mediated cytokine release, TNF (in words)” value ([3]; LPS stimulation)?
Its value is “actually enhanced”.

What about the “neuronal survival in the presence of pathogenic Aβ peptide (in words)” value (human cortical neurons [4]; 0, 25 or 50 μM Aβ1-40, varying doses, FIG. 3, FIG. 4) of the same molecule?
The value was “dose-dependent increase in neuronal survival”.

What about the “Max Inh” value (human cortical neurons [4]; 50 μM Aβ1-40, compound 390 nM to 100 μM added at time of Aβ, 3 days, n=3) of the same molecule?
The value was 80%.

What about the IC50 (human cortical neurons [4]; Homo sapiens, Cortical neurone, 72 h, 50 μM Aβ1-40, compound 390 nM to 100 μM added at time of Aβ, 3 days, n=3, ND = not detected at the concentration range used, read-out: IC50 (dose that inhibited Aβ-mediated neurotoxicity by 50%)) of the same molecule?
The IC50 was 5 µM.
